{
  "source": "patent US10682352B2",
  "about": "“Compound having mutant IDH inhibitory activity, preparation method and use thereof” (SHANGHAI HAIHE PHARMACEUTICAL CO., LTD., priority 2016, dated 2020)",
  "key": {"[1]": {"system": "fibrosarcoma cell line HT1080", "assay": "2HG inhibition assay on fibrosarcoma cell line HT1080 (LC-MS/MS)", "type": "cell-based, Human", "conditions": "HT-1080 cells, 48 h incubation, read-out: HT1080 2HG Inhibitory IC50", "experimental": "In this experiment, the inhibitory activity of the compounds of the present invention against the 2HG concentration level of fibrosarcoma cell line HT1080 was measured by the following method.\nDifferent concentrations of compounds were added and incubated for 48 h. HT-1080 cells were trypsinized and collected, and centrifuged at 500 g for 5 min. The supernatant was discarded, and the cells were resuspended in 1 ml of PBS and the number of cells per sample was counting by a counter (Beckman coulter Z2, Beckman) and adjusted to be the same. After centrifuged at 500 g for 5 min, the supernatant was discarded, and the cell pellet was stored in a refrigerator at −80° C. for 2HG detection.\nSample Treatment: an ice acetonitrile solution containing 200 μL of verapamil (internal standard) was added to sample tubes respectively, vortexed for 1 min, and placed in a refrigerator at 4° C. for 20 min to lyse the cells. 100 μL of sample was taken, another 100 μL of lysate was taken in a 96-well plate and dried with a nitrogen blower, and 100 μL of water was added and vortexed to be uniform.\n1. Derivatization: 100 μL of o-benzylhydroxylamine hydrochloride derivatization reagent was added and shaken on a shaker for 1 h to complete the derivatization reaction.\n2. Solution extraction: 300 μL of ethyl acetate was added separately, shaken for 20 min, centrifuged at 1900 rpm for 5 min, and placed in a refrigerator at −70° C. for 40 min. All the ethyl acetate was taken up to another sample plate, and dried with a nitrogen blower. 150 μL MEOH/H2O (v/v, 1/1) was added for reconstitution.\n3. Bioanalysis: All of the above samples were analyzed by LC-MS/MS (Waters ACQUITY H-Class System, Waters/AB6500, Sciex) after centrifuged at 4000 rpm for 10 min.\nThe inhibition rate of the sample was obtained by the following formula: […]\nIC50 values were calculated using GraphPad Prism software."}, "IDH1 R132H": {"target": "IDH1 R132H (Homo sapiens (Human), UniProt O75874, R132H)", "sequence (O75874 whole entry R132H)": "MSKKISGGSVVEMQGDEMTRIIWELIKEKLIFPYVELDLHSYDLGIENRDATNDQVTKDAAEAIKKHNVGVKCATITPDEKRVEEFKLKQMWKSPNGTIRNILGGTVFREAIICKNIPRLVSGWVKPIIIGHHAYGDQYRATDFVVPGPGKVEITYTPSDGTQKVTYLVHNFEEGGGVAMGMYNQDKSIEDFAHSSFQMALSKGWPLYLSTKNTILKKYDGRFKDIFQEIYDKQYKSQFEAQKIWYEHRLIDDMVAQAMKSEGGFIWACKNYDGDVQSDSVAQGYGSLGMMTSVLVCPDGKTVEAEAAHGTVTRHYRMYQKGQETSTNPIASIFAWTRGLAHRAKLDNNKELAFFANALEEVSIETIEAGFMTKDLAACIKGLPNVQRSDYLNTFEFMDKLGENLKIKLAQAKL", "assay": "Effect on the enzyme activity of IDH1 at the molecular level (NADPH consumption, diaphorase/resazurin)", "type": "biochemical", "conditions": "α-KG 1 mM, NADPH 4 μM, 60 min room temperature", "experimental": "The enzyme used in the experiment was purchased from cayman Co.\nThe substrates α-KG, NADPH and Diaphorase were purchased from Sigma; Resazurin was purchased from J&K; and the remaining reagents were purchased from Sinopharm Chemical Reagent Co., Ltd.\nCompound preparation: Compound 12000 g was centrifuged for 5 min, DMSO was added to prepare 10 mM, which was vortexed, then ultrasonic treatment for 10 minutes, and stored at −40° C. The stock solution was diluted firstly with DMSO to a 10 μM solution when tested and then gradient-diluted for 3 times to a different test concentration.\nTest method: The enzyme activity of IDH1 to convert α-KG to 2HG was measured by the consumption of NADPH. After the enzymatic reaction was completed, a catalytic excess of diaphorase and reazurin were added, and the resulting fluorescent signal could reflect the amount of remaining NADPH. […] IC50 values were calculated using GraphPad Prism software."}},
  "note": "Where two headings read alike, the source gives them in different places.",
  "data": [
    {"smiles": "CC(C)[C@H]1C(C)NC(=O)N1c1ccnc(N[C@@H](C)c2cn(-c3ccc(Cl)cc3)cn2)n1", "note": "(single isomer, unassigned) [Compound 86]", "values": [
      {"measurement": "IC50", "setting": "[1]", "value": 66, "unit": "nM"},
      {"measurement": "IC50", "setting": "IDH1 R132H", "value": "< 100", "unit": "nM"}
    ]},
    {"smiles": "CC(C)[C@H]1C(C)NC(=O)N1c1ccnc(N[C@@H](C)c2cn(-c3ccc(Cl)cc3)cn2)n1", "note": "(single isomer, unassigned) [Compound 87]", "values": [
      {"measurement": "IC50", "setting": "[1]", "value": 29, "unit": "nM"},
      {"measurement": "IC50", "setting": "IDH1 R132H", "value": "< 100", "unit": "nM"}
    ]},
    {"smiles": "CC(C)[C@H]1C(C)N(C)C(=O)N1c1ccnc(N[C@@H](C)c2cn(-c3ccc(Cl)cc3)cn2)n1", "note": "(single isomer, unassigned) [Compound 90]", "values": [
      {"measurement": "IC50", "setting": "[1]; Homo sapiens, HT-1080, 48 h", "value": 24, "unit": "nM"},
      {"measurement": "IC50", "setting": "IDH1 R132H", "value": "< 100", "unit": "nM"}
    ]},
    {"smiles": "CC(C)[C@H]1C(C)N(C)C(=O)N1c1ccnc(N[C@@H](C)c2cn(-c3ccc(Cl)cc3)cn2)n1", "note": "(single isomer, unassigned) [Compound 91]", "values": [
      {"measurement": "IC50", "setting": "[1]", "value": 12, "unit": "nM"},
      {"measurement": "IC50", "setting": "IDH1 R132H", "value": "< 100", "unit": "nM"}
    ]},
    {"smiles": "CC(C)[C@H]1C(C)NC(=O)N1c1ccnc(N[C@@H](C)c2cn(-c3ccc(C(F)(F)F)cc3)cn2)n1", "note": "(single isomer, unassigned) [Compound 92]", "values": [
      {"measurement": "IC50", "setting": "[1]; Homo sapiens, HT-1080, 48 h", "value": 33, "unit": "nM"},
      {"measurement": "IC50", "setting": "IDH1 R132H", "value": "< 100", "unit": "nM"}
    ]},
    {"smiles": "CC(C)[C@H]1C(C)NC(=O)N1c1ccnc(N[C@@H](C)c2cn(-c3ccc(C(F)(F)F)cc3)cn2)n1", "note": "(single isomer, unassigned) [Compound 93]", "values": [
      {"measurement": "IC50", "setting": "[1]", "value": 34.5, "unit": "nM"},
      {"measurement": "IC50", "setting": "IDH1 R132H", "value": "< 100", "unit": "nM"}
    ]},
    {"smiles": "CC(C)[C@H]1C(C)N(C)C(=O)N1c1ccnc(N[C@@H](C)c2cn(-c3ccc(C(F)(F)F)cc3)cn2)n1", "note": "(single isomer, unassigned) [Compound 94]", "values": [
      {"measurement": "IC50", "setting": "[1]; Homo sapiens, HT-1080, 48 h", "value": "< 10", "unit": "nM"},
      {"measurement": "IC50", "setting": "IDH1 R132H", "value": "< 100", "unit": "nM"}
    ]},
    {"smiles": "CC(C)[C@H]1C(C)N(C)C(=O)N1c1ccnc(N[C@@H](C)c2cn(-c3ccc(C(F)(F)F)cc3)cn2)n1", "note": "(single isomer, unassigned) [Compound 95]", "values": [
      {"measurement": "IC50", "setting": "[1]", "value": "< 10", "unit": "nM"},
      {"measurement": "IC50", "setting": "IDH1 R132H", "value": "< 100", "unit": "nM"}
    ]},
    {"smiles": "N#Cc1ccnc(N2C(=O)CC[C@H]2C(=O)N(c2cncc(F)c2)[C@H](C(=O)NC2CC(F)(F)C2)c2ccccc2Cl)c1", "note": "[AG120, reference compound]", "values": [
      {"measurement": "IC50", "setting": "[1]; Homo sapiens", "value": 30, "unit": "nM"}
    ]},
    {"smiles": "CC(C)[C@H]1CN(C)C(=O)N1c1ccnc(N[C@@H](C)c2cn(-c3ccc(Cl)cc3)cn2)n1", "note": "[Compound 17, (S)-3-(2-(((S)-1-(1-(4-chlorophenyl)-1H-imidazol-4-yl)ethyl)amino)pyrimidin-4-yl)-4-isopropyl-1-methylimidazolidine-2-one]", "values": [
      {"measurement": "IC50", "setting": "[1]; Homo sapiens, HT-1080, 48 h", "value": 12.9, "unit": "nM"}
    ]},
    {"smiles": "CC(C)[C@H]1CN(C)C(=O)N1c1ccnc(NC2(c3cn(-c4cc(Cl)cc(Cl)c4)cn3)CC2)n1", "note": "[Compound 26, (S)-3-(2-((1-(1-(3,5-dichlorophenyl)-1H-imidazol-4-yl)cyclopropyl)amino)pyrimidin-4-yl)-4-isopropyl-1-methylimidazolidine-2-one]", "values": [
      {"measurement": "IC50", "setting": "[1]; Homo sapiens, HT-1080, 48 h", "value": 27, "unit": "nM"}
    ]},
    {"smiles": "CC(C)c1cccc(-n2cnc(C3(Nc4nccc(N5C(=O)N(C)C[C@@H]5C(C)C)n4)CC3)c2)c1", "note": "[Compound 30, (S)-3-(2-((1-(1-(3-isopropylphenyl)-1H-imidazol-4-yl)cyclopropyl)amino)pyrimidin-4-yl)-4-isopropyl-1-methylimidazolidne-2-one]", "values": [
      {"measurement": "IC50", "setting": "[1]; Homo sapiens, HT-1080, 48 h", "value": 15, "unit": "nM"}
    ]},
    {"smiles": "CC(C)[C@H]1CN(C)C(=O)N1c1ccnc(NC2(c3cn(-c4cccc(C5CC5)c4)cn3)CC2)n1", "note": "[Compound 34]", "values": [
      {"measurement": "IC50", "setting": "[1]; Homo sapiens, HT-1080, 48 h", "value": 16, "unit": "nM"}
    ]},
    {"smiles": "COc1cc(Cl)cc(-n2cnc(C3(Nc4nccc(N5C(=O)N(C)C[C@@H]5C(C)C)n4)CC3)c2)c1", "note": "[Compound 38, (S)-3-(2-((1-(1-(3-chloro-5-methoxyphenyl)-1H-imidazol-4-yl)cyclopropyl)amino)pyrimidin-4-yl)-4-isopropyl-1-methylimidazolidine-2-one]", "values": [
      {"measurement": "IC50", "setting": "[1]; Homo sapiens, HT-1080, 48 h", "value": 14, "unit": "nM"}
    ]},
    {"smiles": "[2H]C1([2H])NC(=O)N(c2ccnc(N[C@@H](C)c3cn(-c4ccc(C(F)(F)F)cc4)cn3)n2)[C@H]1C(C)C", "note": "[Compound 83, (S)-1-(2-(((S)-1-(1-(4-(trifluoromethyl)phenyl)-1H-imidazol-4-yl)ethyl)amino)pyrimidin-4-yl)-4,4-dideutero-5-isopropylimidazolidine-2-one]", "values": [
      {"measurement": "IC50", "setting": "[1]; Homo sapiens, HT-1080, 48 h", "value": 10, "unit": "nM"}
    ]},
    {"smiles": "[2H]C([2H])([2H])N1C(=O)N(c2ccnc(N[C@@H](C)c3cn(-c4ccc(Cl)cc4)cn3)n2)[C@@H](C(C)C)C1([2H])[2H]", "note": "[Compound 89, (S)-3-(2-(((S)-1-(1-(4-chlorophenyl)-1H-imidazol-4-yl)ethyl)amino)pyrimidin-4-yl)-5,5-dideutero-4-isopropyl-1-deuteromethylimidazolidine-2-one]", "values": [
      {"measurement": "IC50", "setting": "[1]; Homo sapiens, HT-1080, 48 h", "value": 39, "unit": "nM"}
    ]},
    {"smiles": "CC(C)[C@@H]1N(c2ccnc(N[C@@H](C)c3cn(-c4ccc(C(F)(F)F)cc4)cn3)n2)C(=O)NC1(C)C", "note": "[Compound 101]", "values": [
      {"measurement": "IC50", "setting": "[1]; Homo sapiens, HT-1080, 48 h", "value": 20, "unit": "nM"}
    ]},
    {"smiles": "CC(C)[C@@H]1N(c2ccnc(N[C@@H](C)c3cn(-c4ccc(C(F)(F)F)cc4)cn3)n2)C(=O)N(C)C12CC2", "note": "[Compound 103, (S)-7-isopropyl-4-methyl-6-(2-(((S)-1-(1-(4-(trifluoromethyl)phenyl)-1H-imidazole-4-yl) Ethyl)amino)-4-yl)-4,6-diazaspiro[2.4]hept-5-one]", "values": [
      {"measurement": "IC50", "setting": "IDH1 R132H", "value": "100 to 1000", "unit": "nM"}
    ]},
    {"smiles": "[2H]C1([2H])[C@H](C(C)C)N(c2ccnc(N[C@@H](C)c3cc(C)c(-c4ccnc(C(F)(F)F)c4)cn3)n2)C(=O)N1C", "note": "[Compound 109]", "values": [
      {"measurement": "IC50", "setting": "IDH1 R132H", "value": "100 to 1000", "unit": "nM"}
    ]},
    {"smiles": "CC(C)[C@H]1CN(C)C(=O)N1c1ccnc(NC2(c3ccc(-c4ccnc(C(F)(F)F)c4)cn3)CC2)n1", "note": "[Compound 113]", "values": [
      {"measurement": "IC50", "setting": "IDH1 R132H", "value": "100 to 1000", "unit": "nM"}
    ]}
  ]
}
